These results are taken from ChEMBL document CHEMBL2146478, “Discovery of potent inhibitors of receptor protein tyrosine phosphatase sigma through the structure-based virtual screening” (Bioorg Med Chem Lett, 2012).

The target of assay [1] is T1, Protein tyrosine phosphatase type IVA 1 (Homo sapiens, UniProt Q93096).
T1 sequence (Q93096 whole entry): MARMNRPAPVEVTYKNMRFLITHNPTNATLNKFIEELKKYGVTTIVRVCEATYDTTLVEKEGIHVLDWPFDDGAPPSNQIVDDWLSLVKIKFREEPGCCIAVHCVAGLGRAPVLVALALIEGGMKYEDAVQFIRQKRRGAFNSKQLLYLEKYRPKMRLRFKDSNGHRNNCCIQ
The assay is described as follows: Inhibition of PRL1.

Assay [2] has as its target Protein tyrosine phosphatase type IVA 3 (Homo sapiens, UniProt O75365). Description: Inhibition of PRL3.
The target of assay [3] is T2, PTPsigma-(Brain) (Homo sapiens, UniProt Q9UM81). The assay is described as follows: Inhibition of His-tagged PTPsigma catalytic domain amino acid 1369 to 1948 using DiFMUP as substrate after 20 mins by spectrofluorometric analysis.
Target sequence in this assay (Q9UM81 whole entry, the tested form may be a part): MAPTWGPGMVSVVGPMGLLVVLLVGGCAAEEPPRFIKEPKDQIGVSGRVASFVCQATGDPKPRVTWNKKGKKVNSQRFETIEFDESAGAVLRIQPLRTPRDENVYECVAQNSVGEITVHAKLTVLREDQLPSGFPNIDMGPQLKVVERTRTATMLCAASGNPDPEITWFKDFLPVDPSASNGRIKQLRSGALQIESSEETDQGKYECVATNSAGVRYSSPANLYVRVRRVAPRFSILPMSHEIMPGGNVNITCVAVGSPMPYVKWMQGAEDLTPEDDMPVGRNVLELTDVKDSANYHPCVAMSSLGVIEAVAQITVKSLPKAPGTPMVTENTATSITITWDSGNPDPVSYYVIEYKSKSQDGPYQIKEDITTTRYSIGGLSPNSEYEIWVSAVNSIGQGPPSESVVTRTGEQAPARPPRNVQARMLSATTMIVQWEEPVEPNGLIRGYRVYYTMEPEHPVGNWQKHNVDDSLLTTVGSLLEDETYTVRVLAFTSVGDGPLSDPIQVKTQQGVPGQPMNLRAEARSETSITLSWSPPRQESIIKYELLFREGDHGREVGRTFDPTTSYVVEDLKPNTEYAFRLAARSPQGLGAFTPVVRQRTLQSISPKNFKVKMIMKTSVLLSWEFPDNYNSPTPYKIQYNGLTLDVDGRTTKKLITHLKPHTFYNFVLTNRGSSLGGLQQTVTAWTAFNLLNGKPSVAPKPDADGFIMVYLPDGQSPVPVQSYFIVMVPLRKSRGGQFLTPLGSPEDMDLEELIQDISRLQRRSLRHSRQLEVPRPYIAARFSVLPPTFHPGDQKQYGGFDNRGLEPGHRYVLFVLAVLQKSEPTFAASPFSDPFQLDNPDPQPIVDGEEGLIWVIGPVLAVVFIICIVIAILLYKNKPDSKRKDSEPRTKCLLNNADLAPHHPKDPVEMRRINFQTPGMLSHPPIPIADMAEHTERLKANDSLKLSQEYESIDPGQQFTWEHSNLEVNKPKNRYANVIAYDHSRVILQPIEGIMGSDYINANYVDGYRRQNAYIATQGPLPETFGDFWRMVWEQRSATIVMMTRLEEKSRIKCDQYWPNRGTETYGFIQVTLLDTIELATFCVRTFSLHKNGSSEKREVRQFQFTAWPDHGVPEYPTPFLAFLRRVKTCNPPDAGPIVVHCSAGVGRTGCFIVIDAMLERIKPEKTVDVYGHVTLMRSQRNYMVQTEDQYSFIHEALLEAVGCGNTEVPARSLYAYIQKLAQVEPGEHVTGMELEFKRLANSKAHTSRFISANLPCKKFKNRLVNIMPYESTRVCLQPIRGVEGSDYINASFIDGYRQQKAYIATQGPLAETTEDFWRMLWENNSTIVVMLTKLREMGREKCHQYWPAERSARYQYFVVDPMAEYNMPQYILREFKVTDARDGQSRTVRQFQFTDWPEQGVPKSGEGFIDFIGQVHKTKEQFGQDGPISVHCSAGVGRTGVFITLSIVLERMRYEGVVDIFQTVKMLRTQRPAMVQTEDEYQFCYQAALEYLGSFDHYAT
For assay [4], the target named is T2, PTPsigma-(Brain). Description: Inhibition of His-tagged PTPsigma catalytic domain amino acid 1369 to 1948 using DiFMUP as substrate at 2 uM after 20 mins by spectrofluorometric analysis.
Target sequence in this assay (Q9UM81 as listed by the source): as the sequence (Q9UM81 whole entry, the tested form may be a part) above
Assay [5] has as its target T3, Dual specificity protein phosphatase 4 (Homo sapiens, UniProt Q13115).
T3 sequence (Q13115 whole entry): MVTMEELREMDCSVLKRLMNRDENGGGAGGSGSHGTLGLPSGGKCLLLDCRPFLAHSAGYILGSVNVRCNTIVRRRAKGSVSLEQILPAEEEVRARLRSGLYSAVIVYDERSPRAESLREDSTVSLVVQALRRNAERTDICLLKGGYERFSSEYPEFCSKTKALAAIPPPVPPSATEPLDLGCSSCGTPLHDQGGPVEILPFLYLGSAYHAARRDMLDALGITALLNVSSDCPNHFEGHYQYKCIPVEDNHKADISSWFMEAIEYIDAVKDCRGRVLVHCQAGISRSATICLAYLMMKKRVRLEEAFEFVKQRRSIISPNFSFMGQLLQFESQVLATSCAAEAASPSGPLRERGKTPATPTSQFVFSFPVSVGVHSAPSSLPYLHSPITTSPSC
The assay is described as follows: Inhibition of MKP2.

Protein tyrosine phosphatase type IVA 3, sequence (O75365 whole entry, the tested form may be a part): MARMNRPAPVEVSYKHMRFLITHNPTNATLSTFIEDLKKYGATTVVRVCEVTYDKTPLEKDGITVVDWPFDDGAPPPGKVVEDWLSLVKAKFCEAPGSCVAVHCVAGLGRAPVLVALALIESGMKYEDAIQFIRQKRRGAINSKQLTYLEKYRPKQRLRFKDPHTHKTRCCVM

Turning to `CC1=CC2=NC(=O)/C(=C/c3ccc(O)c(O)c3)C(=N)N2O1`, the half-inhibitory concentration (IC50) (in general, the concentration that inhibits the measured activity by half) was greater than 100 µM in assay [1], greater than 100 µM in assay [2], 0.7 µM at PTPsigma-(Brain) [3] and 55.4 µM in assay [5]. Further, on PTPsigma-(Brain) [4], the inhibition (in general, the change of the read-out against control, counted positive when it falls) was greater than 50%.
With `O=c1/c(=C/c2ccc(O)c(O)c2)sc2nc3ccccc3n12`, the IC50 is 14 µM in assay [1], 11 µM in assay [2], 0.9 µM against PTPsigma-(Brain) [3] and greater than 100 µM in assay [5]. For the same compound, at PTPsigma-(Brain) [4], the inhibition was greater than 50%.
As for `c1ccc2nc(-c3nnc4sc(-c5cnccn5)nn34)ccc2c1`, the IC50 was 21 µM in assay [1], greater than 100 µM in assay [2], 0.1 µM on PTPsigma-(Brain) [3] and 2.29 µM in assay [5]. This compound displayed an inhibition at PTPsigma-(Brain) [4] greater than 50%.
For `O=C1NC(=S)S/C1=C\c1cn(-c2ccccc2)nc1-c1cccc(OCc2ccccc2Cl)c1`, the IC50 in assay [1] came to 37.2 µM; in assay [2], 27.6 µM; against PTPsigma-(Brain) [3], 0.6 µM; in assay [5] it was 21 µM. This compound had an inhibition against PTPsigma-(Brain) [4] greater than 50%.
Consider `O=C1NC(=O)/C(=C\c2cccn2-c2ccc(C(=O)O)cc2)N1`, for which the IC50 in assay [1] was greater than 100 µM; in assay [2] it was greater than 100 µM; at PTPsigma-(Brain) [3] it was 0.2 µM; in assay [5] it was greater than 100 µM. The inhibition on PTPsigma-(Brain) [4] was greater than 50%.
On to `O=C(CSc1nnc(-c2ccco2)c(-c2ccco2)n1)Nc1ccccc1[N+](=O)[O-]`, for which the IC50 in assay [1] was greater than 100 µM; in assay [2] it was 57 µM; against PTPsigma-(Brain) [3], 1.3 µM; in assay [5] it was greater than 100 µM. Moreover, the inhibition against PTPsigma-(Brain) [4] is greater than 50%.
For the compound `N=C1/C(=C\c2ccc(O)c(O)c2)C(=O)N=C2SC(c3ccc(O)cc3)=NN12`, the IC50 in assay [1] is 39.8 µM; in assay [2], 33.2 µM; against PTPsigma-(Brain) [3], 1.2 µM; in assay [5] it was greater than 100 µM. Further, the inhibition at PTPsigma-(Brain) [4] is greater than 50%.
